Test results as given in PMC3914206.

What was measured:
Format in all cases: binding
Conditions in all cases: Compound Concentration 10 µM
panel of 442 kinases [1] = molecular target: T1, panel of 442 kinases (Homo sapiens, UniProt P08631)
T1 construct: purchased KINOMEscan
Text: (§1) We assessed the selectivity of members of this scaffold using the KINOMEscan methodology across a near comprehensive panel of 442 kinases [[18,27]].

panel of 442 kinases [2] = molecular target: T2, panel of 442 kinases (Homo sapiens, UniProt Q05655)
T2 construct: purchased KINOMEscan
Text: as §1

panel of 442 kinases [3] = molecular target: T3, panel of 442 kinases (Homo sapiens, UniProt Q9UQ88)
T3 construct: purchased KINOMEscan
T3 sequence (Q9UQ88 1-783): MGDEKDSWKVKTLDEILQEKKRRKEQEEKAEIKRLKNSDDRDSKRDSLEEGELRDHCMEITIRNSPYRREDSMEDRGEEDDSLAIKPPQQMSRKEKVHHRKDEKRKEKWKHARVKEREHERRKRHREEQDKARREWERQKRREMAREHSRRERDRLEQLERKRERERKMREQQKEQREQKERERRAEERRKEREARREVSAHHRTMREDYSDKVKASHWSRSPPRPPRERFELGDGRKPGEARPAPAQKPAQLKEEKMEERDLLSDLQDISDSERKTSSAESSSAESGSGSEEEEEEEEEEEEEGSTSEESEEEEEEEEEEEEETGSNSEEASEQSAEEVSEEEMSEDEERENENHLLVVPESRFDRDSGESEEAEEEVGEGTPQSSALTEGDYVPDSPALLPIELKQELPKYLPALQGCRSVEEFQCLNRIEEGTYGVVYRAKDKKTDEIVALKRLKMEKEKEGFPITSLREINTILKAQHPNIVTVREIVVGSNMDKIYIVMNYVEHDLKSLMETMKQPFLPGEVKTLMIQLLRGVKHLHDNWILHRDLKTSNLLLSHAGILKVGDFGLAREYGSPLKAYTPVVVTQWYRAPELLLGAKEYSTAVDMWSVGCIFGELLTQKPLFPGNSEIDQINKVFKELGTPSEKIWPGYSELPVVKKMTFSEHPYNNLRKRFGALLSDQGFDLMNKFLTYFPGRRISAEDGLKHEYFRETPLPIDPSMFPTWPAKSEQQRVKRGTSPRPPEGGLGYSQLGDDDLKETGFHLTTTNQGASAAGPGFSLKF
Text: as §1

T1 sequence (P08631 whole entry): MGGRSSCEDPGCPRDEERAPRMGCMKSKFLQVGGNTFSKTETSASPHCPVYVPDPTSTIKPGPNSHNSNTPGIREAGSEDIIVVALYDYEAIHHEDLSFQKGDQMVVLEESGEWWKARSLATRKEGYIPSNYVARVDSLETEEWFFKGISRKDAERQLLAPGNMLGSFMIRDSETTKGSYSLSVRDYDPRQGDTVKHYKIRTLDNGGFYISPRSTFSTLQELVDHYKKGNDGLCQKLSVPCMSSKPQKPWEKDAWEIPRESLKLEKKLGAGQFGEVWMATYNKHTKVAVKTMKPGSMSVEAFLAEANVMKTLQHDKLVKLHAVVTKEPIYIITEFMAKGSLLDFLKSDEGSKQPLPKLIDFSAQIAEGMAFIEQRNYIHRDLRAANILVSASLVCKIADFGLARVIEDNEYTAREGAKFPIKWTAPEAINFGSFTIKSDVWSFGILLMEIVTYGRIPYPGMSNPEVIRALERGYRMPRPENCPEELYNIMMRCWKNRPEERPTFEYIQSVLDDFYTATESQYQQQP
T2 sequence (Q05655 whole entry): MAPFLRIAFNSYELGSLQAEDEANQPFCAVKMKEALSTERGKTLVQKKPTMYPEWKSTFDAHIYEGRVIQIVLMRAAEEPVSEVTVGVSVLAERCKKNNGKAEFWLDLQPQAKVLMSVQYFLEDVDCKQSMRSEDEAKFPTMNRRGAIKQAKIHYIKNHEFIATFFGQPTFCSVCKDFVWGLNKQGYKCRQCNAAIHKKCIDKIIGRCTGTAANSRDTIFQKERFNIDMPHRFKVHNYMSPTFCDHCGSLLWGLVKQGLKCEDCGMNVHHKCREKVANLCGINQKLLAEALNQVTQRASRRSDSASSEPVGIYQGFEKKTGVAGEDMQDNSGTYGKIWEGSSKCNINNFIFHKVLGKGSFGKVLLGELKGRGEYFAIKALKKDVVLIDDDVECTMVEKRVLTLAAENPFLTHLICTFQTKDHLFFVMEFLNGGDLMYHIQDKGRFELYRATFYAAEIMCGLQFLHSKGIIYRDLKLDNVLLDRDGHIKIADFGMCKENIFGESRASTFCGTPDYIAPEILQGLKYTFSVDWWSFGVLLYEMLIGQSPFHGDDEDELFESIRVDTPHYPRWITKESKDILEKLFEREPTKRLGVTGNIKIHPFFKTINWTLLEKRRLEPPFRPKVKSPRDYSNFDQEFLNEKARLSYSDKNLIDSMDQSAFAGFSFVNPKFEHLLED

COc1cc(C(=O)N2CCC(N3CCN(C)CC3)CC2)ccc1Nc1ncc2c(n1)N(C)c1ccccc1C(=O)N2C [15 (LRRK2-IN-1)]
KINOMEscan: HCK (panel of 442 kinases [1]): 100
KINOMEscan: PRKCD (panel of 442 kinases [2]): 75
KINOMEscan: CDC2L2 (panel of 442 kinases [3]): 82

COc1cc(C(=O)N2CCC(N3CCN(C)CC3)CC2)ccc1Nc1ncc2c(n1)N1CCc3cccc(c31)C(=O)N2C [Compound 24]
KINOMEscan: PRKCD (panel of 442 kinases [2]): 67

COc1cc(C(=O)N2CCC(N3CCN(C)CC3)CC2)ccc1Nc1ncc2c(n1)N(C1CCCC1)c1ccccc1C(=O)N2C [Compound 25, 11-cyclopentyl-2-((2-methoxy-4-(4-(4-methylpiperazin-1-yl)piperidine-1-carbonyl)phenyl)amino)-5-methyl-5H-benzo[e]pyrimido[5,4-b][1,4]diazepin-6(11H)-one]
KINOMEscan: HCK (panel of 442 kinases [1]): 97
KINOMEscan: PRKCD (panel of 442 kinases [2]): 100
KINOMEscan: CDC2L2 (panel of 442 kinases [3]): 100

CCOc1cc(C(=O)N2CCC(N3CCN(C)CC3)CC2)ccc1Nc1ncc2c(n1)N(C1CCCC1)c1ccccc1C(=O)N2C [Compound 26]
KINOMEscan: HCK (panel of 442 kinases [1]): 100
KINOMEscan: PRKCD (panel of 442 kinases [2]): 100
KINOMEscan: CDC2L2 (panel of 442 kinases [3]): 100
